The results in this text go back to patent US11571480B2, “Multi-ligand drug conjugates and uses thereof” (priority 2015, dated 2023).

Molecules are shown by their SMILES. pIC50: −log10 of the molar value.

Data set [1] in a line: Cytotoxicity test of conjugate LDC11B. It is filed as cell-based, human. The conditions noted are these: human, 293A embryonic kidney cells, incubated 15-30 min, then 2-3 days. On the procedure:
(§1) Culture medium: RPMI 1640 Medium, no folic acid
(§2) 1) human lung cancer cell H460, ovarian cancer cell SKOV3, human embryonic kidney cell 293A were incubated at 37° C., 5% CO2 in RPMI 1640 medium containing 10% fetal bovine serum, the cells were passaged every 2-3 days.
(§3) 2) human lung cancer cell H460, ovarian cancer cell SKOV3, human embryonic kidney cell 293A were plated at 1×10^3 cells per well (96-well plate) and incubated for 8-12 h at 37° C., 5% CO2.
(§4) 3) Stock solutions of LDC conjugates or control were prepared in PBS solution. 100 μL/well of serially diluted LDC conjugates or control was added to the cells in the plate and incubated for 15-30 min at 37° C., 5% CO2. The culture medium in the wells was then removed by aspiration and the cells were incubated in fresh culture medium without conjugates (150 μL/well) for 2-3 days at 37° C., 5% CO2.
(§5) 4) CellTiter 96® Aqueous One Solution Cell Proliferation Assay (Promega) was added to each well to measure the amount of […] cells, and the plate was incubated in an incubator for 1 h at 37° C., 5% CO2.
(§6) 5) The plate was read at 490 nm on a microplate reader, and the cell survivals were compared for cells with or without the treatment of LDC conjugates. The LDC drug concentrations that are required for 50% cell death (IC50 values) were determined.

Data set [2] relates to human lung cancer cell H460. The data set is described as follows: Cytotoxicity test of conjugate LDC11B. It is filed as cell-based. The conditions noted are these: H460, incubated 15-30 min, then 2-3 days. As for the experimental part: as §1, §2, §3, §4, §5, §6
For data set [3], the system named is ovarian cancer cell SKOV3. The data set is described as follows: Cytotoxicity test of conjugate LDC11B. It counts as cell-based, human. The conditions noted are these: SKOV3, incubated 15-30 min, then 2-3 days. On the procedure:
as §1, §2, §3, §4, §5, §6

The subject of another data set is Transplanted H460 tumor. As to the kind of experiment: Inhibitory assay of conjugates LDC11A, LDC11B against xenograf tumors. It counts as in vivo, nude mice. As for the experimental part: (§7) Animal: nude mice, aged 6-8 weeks, female
(§8) 1) human large cell lung cancer cell H460, ovarian cancer cell SKOV3, breast cancer cell line HCC1954, and human breast cancer cell SK-BR-3 were incubated at 37° C., 5% CO2 in IMDM medium containing 10% fetal bovine serum, the cells were passaged every 2-3 days.
(§9) 2) generation of tumors: 7×10^6 tumor cells were subcutaneously injected into the back of nude mice, and the mice were grouped for treatment after the tumor sizes were as large as about 100˜200 mm^3.
(§10) 3) treatment: 3 mice/group, treated with LDC11A, LDC11B, as well as controls MMAE and PBS with doses of 5 and 10 mg/kg every 5 days, three injections.
(§11) 4) the physical performance, body weights and tumor sizes of the animals were monitored. The number of animal death was recorded during the experiment.

Data set [4] deals with Transplanted HCC1954 tumor. The description is as above. It counts as in vivo, nude mice. Conditions: for Body weight of mice / Tumor size: HCC1954 tumor, 10 mg/kg. On the procedure:
as §7, §8, §9, §10, §11

The test system of another data set is Transplanted SKOV3 tumor. The data set is described as above. It is filed as in vivo, nude mice. The conditions noted are these: for Body weight of mice / Tumor size: SKOV3 tumor, 10 mg/kg. On the procedure:
as §7, §8, §9, §10, §11

Setting [5] is: H460 tumor, 10 mg/kg, Before Injection.
Setting [6] is: H460 tumor, 10 mg/kg, Five days after Injection 1.
Setting [7] is: H460 tumor, 10 mg/kg, Five days after Injection 2.
Where [8] appears, read: H460 tumor, 10 mg/kg, Five days after Injection 3.

As usually defined, the pIC50 is the negative decadic logarithm of the IC50, by convention in mol/L. High values mean a low IC50, low ones a high IC50. Take `CC[C@H](C)[C@@H]([C@@H](CC(=O)N1CCC[C@H]1[C@H](OC)[C@@H](C)C(=O)N[C@H](C)[C@@H](O)c1ccccc1)OC)N(C)C(=O)[C@@H](NC(=O)[C@H](C(C)C)N(C)C(=O)OCc1ccc(NC(=O)[C@H](CCCNC(N)=O)NC(=O)[C@@H](NC(=O)CCCCCN2C(=O)CC(SC[C@H](NC(=O)CNC(=O)[C@@H]3CCCN3C(=O)[C@H](CCCNC(=N)N)NC(=O)[C@H](CC(C)C)NC(=O)CNC(=O)[C@H](Cc3ccc(O)cc3)NC(=O)[C@H](CO)NC(=O)[C@H](Cc3c[nH]c4ccccc34)NC(=O)[C@H](Cc3c[nH]cn3)NC(=O)[C@@H](N)CCC(=O)O)C(=O)O)C2=O)C(C)C)cc1)C(C)C` (stereo partly drawn) [LDC11A, P11-MC-Val-Cit-PAB-MMAE, reference compound]: the pIC50 in data set [1] is 5.88; in data set [2], 6.18; in data set [3], 6.47. Also, in the data set with Transplanted H460 tumor (H460 tumor, 10 mg/kg), the “animal death / toxicity (in words)” value is given as “dead after the first injection”. In addition, the “Body weight of mice” value in the data set on Transplanted H460 tumor (setting [5]) was 24.46 g; in the data set on Transplanted H460 tumor (setting [6]), “Death”; with Transplanted H460 tumor (H460 tumor, 10 mg/kg, Three days after Injection 1), 18.25 g.
In data set [1], `CC[C@H](C)[C@@H]([C@@H](CC(=O)N1CCC[C@H]1[C@H](OC)[C@@H](C)C(=O)N[C@H](C)[C@@H](O)c1ccccc1)OC)N(C)C(=O)[C@@H](NC(=O)[C@H](C(C)C)N(C)C(=O)OCc1ccc(NC(=O)[C@H](CCCNC(N)=O)NC(=O)[C@@H](NC(=O)CCCCCN2C(=O)CC(SC[C@H](NC(=O)CNC(=O)[C@@H]3CCCN3C(=O)[C@H](CCCNC(=N)N)NC(=O)[C@H](CC(C)C)NC(=O)CNC(=O)[C@H](Cc3ccc(O)cc3)NC(=O)[C@H](CO)NC(=O)[C@H](Cc3c[nH]c4ccccc34)NC(=O)[C@H](Cc3c[nH]cn3)NC(=O)[C@H](CCC(=O)O)NC(=O)CC[C@H](NC(=O)c3ccc(NCC4=Nc5c([nH]c(N)nc5=O)NC4)cc3)C(=O)O)C(=O)O)C2=O)C(C)C)cc1)C(C)C` (some centres unmarked) [LDC11B] showed a pIC50 of 6.28. Besides, the “tumor growth (in words)” value in the data set with Transplanted H460 tumor (H460, three injections at 10 mg/kg) is “can inhibit the tumor growth”; in data set [4] (HCC1954, three injections at 10 mg/kg), “can inhibit the tumor growth”; with Transplanted SKOV3 tumor (SKOV3, three injections at 10 mg/kg) it was “can inhibit the tumor growth”. For the same molecule, the “Body weight of mice” value with Transplanted H460 tumor (setting [5]) was found to be 21.85 g; in the data set with Transplanted H460 tumor (setting [6]) it was 22.2 g; in the data set with Transplanted H460 tumor (setting [7]), 22.55 g; with Transplanted H460 tumor (setting [8]), 22.38 g; in data set [4] (Before Injection), 22.76 g; in data set [4] (Five days after Injection 1), 22.56 g. Moreover, the “Body weight of mice” value came to 23.15 g in data set [4] (Five days after Injection 2); 23.48 g in data set [4] (Five days after Injection 3); 22.11 g with Transplanted SKOV3 tumor (Before Injection); 24.28 g in the data set on Transplanted SKOV3 tumor (Five days after Injection 1); 23.6 g in the data set on Transplanted SKOV3 tumor (Five days after Injection 2); 24.92 g in the data set on Transplanted SKOV3 tumor (Five days after Injection 3). In addition, the Tumor size was determined as 225.32 mm^3 in the data set on Transplanted H460 tumor (setting [5]); 108.73 mm^3 with Transplanted H460 tumor (setting [6]); 0 mm^3 with Transplanted H460 tumor (setting [7]); 0 mm^3 in the data set on Transplanted H460 tumor (setting [8]); 218.76 mm^3 in data set [4] (Before Injection); 87.51 mm^3 in data set [4] (Five days after Injection 1). The Tumor size in data set [4] (Five days after Injection 2) worked out at 0 mm^3; in data set [4] (Five days after Injection 3), 0 mm^3; in the data set on Transplanted SKOV3 tumor (Before Injection) it was 169.22 mm^3; with Transplanted SKOV3 tumor (Five days after Injection 1) it was 137.66 mm^3; with Transplanted SKOV3 tumor (Five days after Injection 2), 76.13 mm^3; in the data set with Transplanted SKOV3 tumor (Five days after Injection 3) it was 27.84 mm^3.
